# According to PubChem BioAssay (NCI):
#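 How tested: cells in 96-well plates exposed to compound for 48 hours at five concentrations. GI50: concentration for 50% inhibition of growth. TGI marks complete inhibition of growth.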
# Key:
# Assay in all cases: NCI anticancer screen, dose series, 48 h
# [1] = system: MCF7 breast
# [2] = system: MDA-MB-231 breast
# [3] = system: MDA-MB-435
# [4] = system: NCI-H226 lung
# [5] = system: RPMI-8226 leukemia
# [6] = system: SF-268 CNS
# [7] = system: SF-539 CNS
# [8] = system: SK-MEL-5 melanoma
# [9] = system: SW-620 colon
# [10] = system: UACC-257 melanoma
SMILES,GI50 [1] [µM],TGI [1] [µM],GI50 [2] [µM],TGI [2] [µM],GI50 [3] [µM],TGI [3] [µM],GI50 [4] [µM],TGI [4] [µM],GI50 [5] [µM],TGI [5] [µM],GI50 [6] [µM],TGI [6] [µM],GI50 [7] [µM],TGI [7] [µM],GI50 [8] [µM],TGI [8] [µM],GI50 [9] [µM],TGI [9] [µM],GI50 [10] [µM],TGI [10] [µM]
COc1ccc(-c2nnc(N3CCN(C(=O)CN4CCN(c5ccc(Cl)cc5)CC4)CC3)nc2-c2ccc(OC)cc2)cc1,5.82,> 100,45.9,> 100,66.1,> 100,46.8,> 100,5.19,> 100,> 100,> 100,15.1,74.8,7.91,> 100,57.9,> 100,59.4,> 100
O=C(Nc1ccccc1O)c1ccc(CNC(=O)c2sccc2Nc2ccnc(C(F)(F)F)c2)cc1,2.65,41.8,9.05,27.4,4.09,17.8,8.07,45,3.59,36.2,7.04,27.7,3.56,31.8,1.94,4.7,5.36,20.4,4.61,38.1
O=S(=O)(NCCNc1cc(-c2cn(-c3ccccc3)nc2-c2cccc(O)c2)ccn1)c1ccc(Cl)cc1,2.74,9.43,2.14,5.56,2.86,10.1,4.02,21.2,2.59,7.75,2.51,8.94,2.08,5.3,2.02,4,3.69,18.9,3.39,10.3
COc1ccc(C(=O)COc2cccc(/C=C3\CSc4ccc(Cl)cc4C3=O)c2)cc1,1.5,11.3,14.2,64.3,3.48,17,14.4,62.8,0.214,3.51,14.9,30.3,16.2,30.7,3.93,18.5,1.82,4.1,12.6,33.4
O=[N+]([O-])c1ccc(/C=C(/c2ccc([N+](=O)[O-])o2)S(=O)(=O)c2ccccc2)o1,,72.7,,16.3,,29,,3.65,,0.483,,32.4,,37.7,,24.4,,5.55,,3.66
COc1ccc(CC(NC(=O)[C@H](C)NC(=O)CN2CCOCC2)C(=O)N[C@@H](Cc2ccccc2)C(=O)[C@@]2(C)CO2)cc1 (some centres undefined),0.129,> 41.6,0.24,1.1,0.069,0.484,0.246,0.725,0.0565,> 100,0.245,0.708,0.221,0.591,0.177,0.379,0.216,0.734,0.296,
Cc1cc(C)n(C(=O)c2nn(-c3ccc(Cl)cc3)cc2O)n1,4.52,> 100,8.8,> 100,3.94,> 100,4.66,98.9,3.34,17,4.13,> 100,3.05,35.1,6.76,23.3,8.02,> 100,16.6,> 100
